Among the data in patent US20100105673A1, “SUBSTITUTED AMINOFURANONES AND THEIR USE” (priority 2006, published 2010) are IC50 values, retold here.

In the assay the target is T1, HIV-1 protease wild type protein (Human immunodeficiency virus type 1 group M subtype B, UniProt P04585).
T1 construct: 20 μl of 0.2−1 nM HIV-1 protease wild type or mutant protein; purchased AscoProt Biotech, Prague, Czech Republic
In words: Biochemical Protease Assay. The protocol:
For the determination of their in vitro activity on HIV protease the test substances are dissolved in DMSO and serially diluted. In each case 0.5 μl of substance dilution, 20 μl of 0.2−1 nM HIV-1 protease wild type or mutant protein (e.g. multiresistant isolate “35513”: L10I, I15V, L19I, K20R, E35D, M36I, R41K, I54V, L63P, H69K, A71V, T74P, I84V, L89M, L90M, 193L, AscoProt Biotech, Prague, Czech Republic) in buffer 1 (50 mM sodium acetate pH 4.9, 0.02% BSA, 0.1 mM EDTA, 0.5 mM DTT) and 20 μl of 8 μM substrate (M1865 from Bachem, Bubendorf, Switzerland; Matayoshi et al., Science 1990, 247, 954-8) in buffer 1 are added successively to a 384 well microtiter plate (Greiner, Frickenhausen, Germany), incubated for 60-180 minutes at 32° C. and the fluorescence is measured (e.g. Tecan Safire, 340 nm extinction, 520 nm emission). IC50 values are determined by graphical plotting of the substance concentration against the percentage inhibition.
As a reminder, the IC50 is the point on the concentration scale where inhibition reaches its midpoint. Compound `Cc1cc(-c2cccc(O)c2)c(Cl)cc1C1=C(N)C2(CCCN(CC(=O)NCc3ccccc3)C2)OC1=O` (stereo not drawn) [Example 27] came in with an IC50 of 14 nM. With `Cc1cc(-c2cccc(S(C)(=O)=O)c2)c(Cl)cc1C1=C(N)[C@@]2(CCCN(CC(=O)NCc3cccs3)C2)OC1=O` (single isomer, unassigned) [Example 84] the figure was 2.5 nM; with `Cc1cc(-c2cccc(NS(=O)(=O)CCN3CCOCC3)c2)c(Cl)cc1C1=C(N)C2(CCCCC2)OC1=O` [Example 20], 510 nM; with `Cc1cc(-c2cccc(S(C)(=O)=O)c2)c(Cl)cc1C1=C(N)[C@@]2(CCCN(CC(=O)NCc3ccccc3)C2)OC1=O` (single isomer, unassigned) [Example 82], 11 nM. On to `CCC(C)CNC(=O)CN1CCCC2(C1)OC(=O)C(c1cc(Cl)c(-c3cccc(S(C)(=O)=O)c3)cc1C)=C2N` (stereo not drawn) [Example 79], for which the IC50 was 85 nM. For `Cc1cc(-c2cccc(S(C)(=O)=O)c2)c(Cl)cc1C1=C(N)C2(CCCN(CC(=O)NCc3cccc(F)c3F)C2)OC1=O` (stereo not drawn) [Example 51], the IC50 was 2.6 nM.
